In patent US20050276857A1, “Hydrogels formed by non-covalent linkages” (University of Washington, priority 2002, published 2005):
Where two headings read alike, the source gives them in different places.

Legend:
[1] = Comparison of D- and L-amino acids for forming hydrogels with PVA; format: physicochemical; parameters: key: {square root} = Gel formation when amino acid was dissolved in water; + = Gel formation when amino acid was dissolved in 1 M NaHCO3; − = No gel formation regardless of solvent for amino acid; *= HCl derivative of amino acid; conditions: 1 ml of 8% PVA; for Gel formation, L: L-amino acid; for Gel formation, D: D-amino acid
Protocol: In these experiments, the ability of D-amino acids to gel PVA was compared directly to the gelling observed using L-amino acids. The concentrations of amino acids used were the same for both the L- and D-forms. All D- and L-amino acids were obtained from Aldrich. Typically, 100 mg of amino acid was dissolved in the minimum amount of water or 1M NaHCO3 (200-600 microliter) necessary to dissolve it. […] For each amino acid/PVA combination, 1 ml of 8% PVA was used (80 mg PVA) and the amount of amino acid was varied. 100 mg of each of amino acids was added unless listed below, with the following exceptions: L-Gln 20 mg; D-Ile 50 mg; L-Phe 20 mg and 40 mg; L-Pro 50 mg and 100 mg; L-Ser 30 mg and 100 mg; L-Thr 30 mg; D-Trp 10 mg and 30 mg; L-Trp 8 mg; L-Tyr 10 mg; D-Tyr 10 mg; L-Val 30 mg.

[2] = for amount necessary to cause precipitation of 1 ml 8% PVA: 1.8 mmol of available OH groups
Protocol: Succinic acid, ethylene diamine, and glycine were each dissolved in water at a typical ratio of 100 mg in 1 ml water.
Aliquots of 100 microliter of each solution were added to PVA to reach final concentrations of either ˜0.5 mmol (low concentration) or ˜1 mmol (high concentration) per 1 ml 8% PVA solution (1.8 mmol of available OH groups in PVA).

| SMILES | Gel formation, L [1] | Gel formation, D [1] | further results |
| --- | --- | --- | --- |
| NCCCC[C@@H](N)C(=O)O [D-Lys] |  | {square root} |  |
| N[C@H](CC(=O)O)C(=O)O [D-Asp] |  | − |  |
| C[C@@H](N)C(=O)O [D-Ala] |  | − |  |
| NC(=O)C[C@H](N)C(=O)O [L-Asn] | + |  |  |
| N[C@H](Cc1ccc(O)cc1)C(=O)O [D-Tyr] |  | + |  |
| CCCC[C@@H](N)C(=O)O [D-Nle] |  | + |  |
| O=C(O)[C@H]1CCCN1 [D-Pro] |  | {square root} |  |
| CC(C)C[C@@H](N)C(=O)O [D-Leu] |  | + |  |
| NC(=O)C[C@@H](N)C(=O)O [D-Asn] |  | − |  |
| NCCN [Ethylene Diamine, ethylene diamine] |  |  | Gel formation ([2]; pH 4): −; gelling over time ([2]; pH 4.4): no gelling over time; initial gelling ([2]; pH 4.4): no immediate gelling; Gel formation ([2]; pH 7): −; gelling over time ([2]; pH 7.2): no additional gelling; initial gelling ([2]; pH 7.2): little immediate gelling; Gel formation ([2]; pH 10): ++; initial gelling ([2]; pH 10.0): immediate gelling; gelling over time ([2]; pH 10.0, first 24 hours): additional gelling; initial gelling ([2]; pH 12.7): immediate gelling; gelling over time ([2]; pH 12.7, first 24 hours): additional gelling; Gel formation ([2]; pH 13.1): +++ |
| N[C@H](CCC(=O)O)C(=O)O [D-Glu] |  | − |  |
| N[C@H](CO)C(=O)O [D-Ser] |  | {square root} |  |
| CSCC[C@@H](N)C(=O)O [D-Met] |  | + |  |
| NCC(=O)O [Glycine, glycine] | {square root} |  | dissolution of gel in water ([2]; gel formed at pH 7, cured for 1 hour in its solution before placing in water): did not dissolve; Gel formation ([2]; pH 4): −; initial gelling ([2]; pH 4): little gel formation; gelling over time ([2]; pH 4, within the first 24 hours): additional gel formation; Gel formation ([2]; pH 7): +++; gelling at higher concentration ([2]; pH 7): immediate gel formation; gelling over time ([2]; pH 7): More gelling; initial gelling ([2]; pH 7): substantial gelling; amount necessary to cause precipitation of 1 ml 8% PVA ([2]; pH 7): 2.6 mmol; initial gelling ([2]; pH 9.9): much gelling; gelling over time ([2]; pH 9.9, within 24 hours): Considerable additional gelling; Gel formation ([2]; pH 10): ++ |
| O=C(O)CCC(=O)O [Succinic Acid, succinic acid] |  |  | dissolution of gel in water or in 1M HCl ([2]; gel formed at pH 7.0, higher concentration): did not dissolve; dissolution of gel in water or in 1M HCl ([2]; gel formed at pH 9.7, higher concentration): did not dissolve; Gel formation ([2]; pH 2.1): −; gelling over time ([2]; pH 2.1): No additional gelling; initial gelling ([2]; pH 2.1): very slight gelling; Gel formation ([2]; pH 4): −; Gel formation ([2]; pH 7): +++; gelling at higher concentration ([2]; pH 7.0): PVA precipitates out immediately; gelling over time ([2]; pH 7.0): A little more gelling; initial gelling ([2]; pH 7.0, small amounts added): some initial gelling; amount necessary to cause precipitation of 1 ml 8% PVA ([2]; pH 7): 0.85 mmol; gelling at higher concentration ([2]; pH 9.7): PVA precipitates out immediately; gelling over time ([2]; pH 9.7): Additional gelling; initial gelling ([2]; pH 9.7, small amounts added): some initial gelling; Gel formation ([2]; pH 10): +++; amount necessary to cause precipitation of 1 ml 8% PVA ([2]; pH 10): 0.73 mmol |
| C[C@H](N)C(=O)O [L-Ala] | + |  |  |
| C[C@H](O)[C@@H](N)C(=O)O [D-Thr] |  | + |  |
| N[C@H](Cc1c[nH]c2ccccc12)C(=O)O [D-Trp] |  | + |  |
| NC(=O)CC[C@H](N)C(=O)O [L-Gln] | + |  |  |
| N[C@H](Cc1ccccc1)C(=O)O [D-Phe] |  | + |  |
| CC[C@@H](C)[C@@H](N)C(=O)O [D-Ile] |  | + |  |
| N=C(N)NCCC[C@H](N)C(=O)O [L-Arg] | {square root} |  |  |
| CC(C)[C@@H](N)C(=O)O [D-Val] |  | + |  |
| N[C@@H](CC(=O)O)C(=O)O [L-Asp] | − |  |  |
| NC(=O)CC[C@@H](N)C(=O)O [D-Gln] |  | − |  |
| N[C@H](Cc1c[nH]cn1)C(=O)O [D-His] |  | − |  |
| N[C@@H](CS)C(=O)O [L-Cys] | + |  |  |
| N[C@@H](CCC(=O)O)C(=O)O [L-Glu] | − |  |  |
| Cl.NC(N)=NCCC[C@@H](N)C(=O)O [D-Arg] |  | −* |  |

The next lines start with results.

| Gel formation, L [1] | Gel formation, D [1] | SMILES | further results |
| --- | --- | --- | --- |
| {square root} |  | N[C@@H](Cc1c[nH]c2ccccc12)C(=O)O [L-Trp] |  |
| − |  | CC(C)C[C@H](N)C(=O)O [L-Leu] |  |
| + |  | CC(C)[C@H](N)C(=O)O [L-Val] |  |
| + |  | N[C@@H](Cc1ccc(O)cc1)C(=O)O [L-Tyr] |  |
| {square root} |  | N[C@@H](Cc1c[nH]cn1)C(=O)O [L-His] |  |
| {square root} |  | O=C(O)[C@@H]1CCCN1 [L-Pro] |  |
| + |  | N[C@@H](CO)C(=O)O [L-Ser] |  |
| − |  | CSCC[C@H](N)C(=O)O [L-Met] |  |
| − |  | CC[C@H](C)[C@H](N)C(=O)O [L-Ile] |  |
| {square root} |  | NCCCC[C@H](N)C(=O)O [L-Lys] |  |
| − |  | O=C(O)[C@@H]1C[C@@H](O)CN1 [L-Hyp] |  |
| + |  | C[C@@H](O)[C@H](N)C(=O)O [L-Thr] |  |
| + |  | N[C@@H](Cc1ccccc1)C(=O)O [L-Phe] |  |
